Data published in PubChem BioAssay (NCI).
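Test compounds were applied to cells in 96-well plates for 48 hours at 5 doses. GI50 = concentration required for 50% inhibition of growth. TGI denotes the concentration required for complete inhibition of growth.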

Key:
Experiment in all cases: NCI tumour cell line growth inhibition, 48 h
[1] = system: OVCAR-8 ovarian
[2] = system: OVCAR-3 ovarian
[3] = system: HOP-62 NSCLC
[4] = system: SK-MEL-28 melanoma
[5] = system: LOX IMVI melanoma
[6] = system: OVCAR-4 ovarian
[7] = system: SK-OV-3 ovarian
[8] = system: HCT-15 colon
[9] = system: 786-0 renal
[10] = system: UO-31 renal
[11] = system: SK-MEL-5 melanoma
[12] = system: RXF 393 renal
[13] = system: NCI-H522 lung
[14] = system: MOLT-4 leukemia
[15] = system: MDA-MB-435
[16] = system: NCI-H23 lung
[17] = system: COLO 205 colon
[18] = system: SW-620 colon
[19] = system: HS 578T breast
[20] = system: U251 CNS
[21] = system: NCI/ADR-RES ovarian
[22] = system: DU-145 prostate
[23] = system: CCRF-CEM leukemia
[24] = system: TK-10 renal
[25] = system: T-47D breast
[26] = system: RPMI-8226 leukemia
[27] = system: CAKI-1 renal
[28] = system: NCI-H226 lung
[29] = system: HCT-116 colon
[30] = system: PC-3 prostate
[31] = system: MALME-3M melanoma
[32] = system: SNB-75 CNS
[33] = system: SF-539 CNS
[34] = system: A549 NSCLC
[35] = system: SF-268 CNS
[36] = system: M14 melanoma
[37] = system: ACHN renal
[38] = system: HOP-92 NSCLC
[39] = system: NCI-H460 lung
[40] = system: MDA-MB-231 breast
[41] = system: UACC-62 melanoma
[42] = system: HL-60(TB) leukemia
[43] = system: OVCAR-5 ovarian
[44] = system: UACC-257 melanoma
[45] = system: SF-295 CNS
[46] = system: K-562 leukemia
[47] = system: IGROV1 ovarian
[48] = system: HCC-2998 colon
[49] = system: BT-549 breast
[50] = system: SN12C renal
[51] = system: SR leukemia
[52] = system: SK-MEL-2 melanoma
[53] = system: MCF7 breast
[54] = system: A498 renal
[55] = system: HT29 colon
[56] = system: EKVX NSCLC
[57] = system: KM12 colon

SMILES: COc1cc(-c2cc(-c3ccc(N(C)C)cc3)nc(N3CCOCC3)c2C#N)cc(OC)c1OC
- GI50 [1]: 1270 nM
- TGI [1]: > 100000 nM
- GI50 [2]: 12900 nM
- TGI [2]: > 83200 nM
- GI50 [3]: 921 nM
- TGI [3]: 10600 nM
- GI50 [4]: 433 nM
- TGI [4]: 5680 nM
- GI50 [5]: 67.6 nM
- TGI [5]: 225 nM
- GI50 [6]: 21400 nM
- TGI [6]: > 100000 nM
- GI50 [7]: 1620 nM
- TGI [7]: > 100000 nM
- GI50 [8]: 680 nM
- TGI [8]: 44100 nM
- GI50 [9]: 835 nM
- TGI [9]: 13400 nM
- GI50 [10]: 6850 nM
- TGI [10]: > 60800 nM
- GI50 [11]: 171 nM
- TGI [11]: 729 nM
- GI50 [12]: 134 nM
- TGI [12]: 3850 nM
- GI50 [13]: 286 nM
- GI50 [14]: 1380 nM
- TGI [14]: > 100000 nM
- GI50 [15]: 843 nM
- TGI [15]: 13400 nM
- GI50 [16]: 6660 nM
- TGI [16]: > 100000 nM
- GI50 [17]: 355 nM
- TGI [17]: 24200 nM
- GI50 [18]: 2020 nM
- TGI [18]: > 100000 nM
- GI50 [19]: 22100 nM
- TGI [19]: > 100000 nM
- GI50 [20]: 1960 nM
- TGI [20]: > 84600 nM
- GI50 [21]: 246 nM
- TGI [21]: > 91400 nM
- GI50 [22]: 9120 nM
- TGI [22]: > 100000 nM
- GI50 [23]: 1210 nM
- TGI [23]: > 100000 nM
- GI50 [24]: 2510 nM
- TGI [24]: > 100000 nM
- GI50 [25]: 529 nM
- TGI [25]: > 22500 nM
- GI50 [26]: 67.7 nM
- TGI [26]: 5080 nM
- GI50 [27]: 333 nM
- TGI [27]: > 33800 nM
- GI50 [28]: 270 nM
- TGI [28]: 995 nM
- GI50 [29]: 388 nM
- TGI [29]: > 100000 nM
- GI50 [30]: 2060 nM
- TGI [30]: > 100000 nM
- GI50 [31]: 1550 nM
- TGI [31]: > 49100 nM
- GI50 [32]: 13300 nM
- TGI [32]: > 76900 nM
- GI50 [33]: 2220 nM
- TGI [33]: > 54800 nM
- GI50 [34]: 1250 nM
- TGI [34]: > 100000 nM
- GI50 [35]: 3730 nM
- TGI [35]: > 100000 nM
- GI50 [36]: 322 nM
- TGI [36]: 1470 nM
- GI50 [37]: 1020 nM
- TGI [37]: > 100000 nM
- GI50 [38]: 1420 nM
- TGI [38]: > 29900 nM
- GI50 [39]: 289 nM
- TGI [39]: > 61600 nM
- GI50 [40]: 463 nM
- TGI [40]: > 33500 nM
- GI50 [41]: 628 nM
- TGI [41]: 1710 nM
- GI50 [42]: 468 nM
- GI50 [43]: 248 nM
- TGI [43]: > 100000 nM
- GI50 [44]: 1180 nM
- TGI [44]: > 82900 nM
- GI50 [45]: 381 nM
- TGI [45]: 1110 nM
- GI50 [46]: 961 nM
- TGI [46]: > 24600 nM
- GI50 [47]: 727 nM
- TGI [47]: 70000 nM
- GI50 [48]: 2530 nM
- TGI [48]: 21300 nM
- GI50 [49]: 471 nM
- TGI [49]: > 100000 nM
- GI50 [50]: 460 nM
- TGI [50]: > 100000 nM
- GI50 [51]: 260 nM
- TGI [51]: 4040 nM
- GI50 [52]: 1140 nM
- TGI [52]: 17900 nM
- GI50 [53]: 1240 nM
- TGI [53]: > 55200 nM
- GI50 [54]: 768 nM
- TGI [54]: 23700 nM
- GI50 [55]: 385 nM
- TGI [55]: > 36000 nM
- GI50 [56]: 988 nM
- TGI [56]: > 100000 nM
- GI50 [57]: 1340 nM
- TGI [57]: > 100000 nM
